Measurements: ChEMBL document CHEMBL1149335, “Dual-acting agents that possess free radical scavenging and antithrombotic activities: design, synthesis, and evaluation of phenolic tetrahydro-beta-carboline RGD peptide conjugates” (Bioorg Med Chem Lett, 2006)
Numbered stars: 1 amine (or outer) side, 2 acyl side, 3 side chain; on linkers, the order of the positions; unused ones are H or OH. Square brackets hold non-standard residues; d marks the D form. Peptide text beside a SMILES is read from it. X1 = COc1cc(C2c3[nH]c4ccccc4c3CC(C(=O)[*:2])N2[*:1])cc(OC)c1O

Key:
[1] = test system: PC-12; experiment: H2O2 radical scavenging activity assessed in PC12 cells; type: functional, cell-based; settings: Rattus norvegicus
[2] = organism: Rattus norvegicus; experiment: NO radical scavenging activity assessed as inhibition of Ach-induced vasorelaxation in rat aorta at 0.1 uM; type: functional
[3] = organism: Oryctolagus cuniculus; experiment: Effect on PAF-induced platelet aggregation in rabbit platelet-rich plasma at 10 uM; type: functional
[4] = organism: Rattus norvegicus; experiment: NO radical scavenging activity assessed as inhibition of Ach-induced vasorelaxation in rat aorta at 0.01 uM; type: functional
[5] = organism: Rattus norvegicus; experiment: NO radical scavenging activity assessed as inhibition of Ach-induced vasorelaxation in rat aorta at 1 uM; type: functional
[6] = organism: Oryctolagus cuniculus; experiment: Effect on ADP-induced platelet aggregation in rabbit platelet-rich plasma at 10 uM; type: functional
[7] = organism: Oryctolagus cuniculus; experiment: Effect on ADP-induced platelet aggregation in rabbit platelet-rich plasma at 1 uM; type: functional
[8] = organism: Oryctolagus cuniculus; experiment: Effect on ADP-induced platelet aggregation in rabbit platelet-rich plasma at 0.1 uM; type: functional
[9] = organism: Oryctolagus cuniculus; experiment: Effect on PAF-induced platelet aggregation in rabbit platelet-rich plasma at 1 uM; type: functional
[10] = organism: Oryctolagus cuniculus; experiment: Effect on PAF-induced platelet aggregation in rabbit platelet-rich plasma at 0.1 uM; type: functional
[11] = test system: Rattus norvegicus; experiment: Decrease in weight of wet thrombus in rat at 5 umol/kg; type: functional
[12] = test system: Rattus norvegicus; experiment: Decrease in weight of dry thrombus in rat at 5 umol/kg; type: functional
[13] = test system: PC-12; experiment: NO radical scavenging activity assessed in PC12 cells; type: functional, cell-based; settings: Rattus norvegicus
[14] = test system: PC-12; experiment: OH radical scavenging activity assessed in PC12 cells; type: functional, cell-based; settings: Rattus norvegicus

| EC50 [1] [µM] | EC50 [13] [µM] | EC50 [14] [µM] | SMILES | inhibition [2] [%] | Activity [3] [%] | inhibition [4] [%] | inhibition [5] [%] | Activity [6] [%] | Activity [7] [%] | Activity [8] [%] | Activity [9] [%] | Activity [10] [%] | Activity [11] [mg] | Activity [12] [mg] |
| --- | --- | --- | --- | --- | --- | --- | --- | --- | --- | --- | --- | --- | --- | --- |
| 43.7 | 89.7 | – | COc1cc(C2N[C@H](C(=O)O)Cc3c2[nH]c2ccccc32)cc(OC)c1O (some centres undefined) | 57.2 | 36.34 | 10.9 | 79.9 | 27.33 | 46.65 | 54.88 | 51.42 | 55.8 | 43.76 | 7.27 |
| – | – | – | N=C(N)NCCC[C@H](N)C(=O)NCC(=O)N[C@@H](CC(=O)O)C(=O)N[C@@H](CO)C(=O)O | – | 22.03 | – | – | 16.6 | 39.62 | 52.5 | 36.47 | 56.69 | 42.9 | 7.62 |
| – | – | – | N=C(N)NCCC[C@H](N)C(=O)NCC(=O)N[C@@H](CC(=O)O)C(=O)N[C@@H](Cc1ccccc1)C(=O)O (H-RGDF-OH) | – | 7.73 | – | – | 7.87 | 22.71 | 34.99 | 24.02 | 40.39 | 26.68 | 4.05 |
| – | – | – | CC(C)[C@H](NC(=O)[C@H](CC(=O)O)NC(=O)CNC(=O)[C@@H](N)CCCNC(=N)N)C(=O)O (H-RGDV-OH) | – | 20.01 | – | – | 11.65 | 29.61 | 51.78 | 34.84 | 55.07 | 35.6 | 6.43 |
| 67.9 | 92.8 | 90.4 | COc1cc(C2NC(C(=O)N[C@@H](CCCN=C(N)N)C(=O)NCC(=O)N[C@@H](CC(=O)O)C(=O)N[C@@H](Cc3ccccc3)C(=O)O)Cc3c2[nH]c2ccccc32)cc(OC)c1O (some centres undefined) (H-[X1]RGDF-OH) | 73.3 | 21.52 | 25.4 | 90.9 | 13.11 | 29.43 | 38 | 25.33 | 36.59 | 22.09 | 2.68 |
| 30.6 | 87.6 | 95.4 | COc1cc(C2NC(C(=O)N[C@@H](CCCN=C(N)N)C(=O)NCC(=O)N[C@@H](CC(=O)O)C(=O)N[C@@H](CO)C(=O)O)Cc3c2[nH]c2ccccc32)cc(OC)c1O (some centres undefined) (H-[X1]RGDS-OH) | 60.7 | 28.61 | 12.8 | 91.9 | 11.33 | 28.31 | 49.37 | 34.59 | 55.62 | 28.01 | 5 |
| 33.5 | 90.3 | 92.3 | COc1cc(C2NC(C(=O)N[C@@H](CCCN=C(N)N)C(=O)NCC(=O)N[C@@H](CC(=O)O)C(=O)N[C@H](C(=O)O)C(C)C)Cc3c2[nH]c2ccccc32)cc(OC)c1O (some centres undefined) (H-[X1]RGDV-OH) | 71.2 | 25.88 | 13.3 | 92.2 | 14.38 | 29.6 | 50.2 | 35.8 | 54.06 | 29.05 | 4.85 |
